# In ChEMBL document CHEMBL4507256 (2021):
# What was measured:
# [1] = system: Leucine-rich repeat serine/threonine-protein kinase 2 (Homo sapiens), Q5S007 [G2019S]; conditions: Compound concentration 1000.0 nM
# [2] = target: Tyrosine-protein kinase receptor Tie-1 (Homo sapiens) (UniProt P35590); conditions: Compound concentration 1000.0 nM
# [3] = target: Ephrin type-B receptor 3 (Homo sapiens) (UniProt P54753); conditions: Compound concentration 1000.0 nM
# [4] = system: Tyrosine-protein kinase ABL1 (Homo sapiens), P00519 [T315I]; conditions: Compound concentration 1000.0 nM
# [5] = target: T1, GABA-A receptor; anion channel (Rattus norvegicus) (UniProt O09028+P15431+P18506+P18508+P19969+P20236+P23574+P23576+P28471+P28473+P30191+P62813+P63079+P63138+Q91ZM7+Q9ES14); conditions: Compound concentration 10.0 uM
# [6] = target: Activin receptor type-1 (Homo sapiens) (UniProt Q04771); conditions: Compound concentration 1000.0 nM
# [7] = target: Ephrin type-B receptor 1 (Homo sapiens) (UniProt P54762); conditions: Compound concentration 1000.0 nM
# [8] = target: Epithelial discoidin domain-containing receptor 1 (Homo sapiens) (UniProt Q08345); conditions: Compound concentration 1000.0 nM
# [9] = system: Serine/threonine-protein kinase B-raf (Homo sapiens), P15056 [V600E]; conditions: Compound concentration 1000.0 nM
# [10] = target: Serine/threonine-protein kinase pim-1 (Homo sapiens) (UniProt P11309); conditions: Compound concentration 1000.0 nM
# [11] = target: Aurora kinase A (Homo sapiens) (UniProt O14965); conditions: Compound concentration 1000.0 nM
# Chain of Aurora kinase A (Homo sapiens) (O14965 whole entry): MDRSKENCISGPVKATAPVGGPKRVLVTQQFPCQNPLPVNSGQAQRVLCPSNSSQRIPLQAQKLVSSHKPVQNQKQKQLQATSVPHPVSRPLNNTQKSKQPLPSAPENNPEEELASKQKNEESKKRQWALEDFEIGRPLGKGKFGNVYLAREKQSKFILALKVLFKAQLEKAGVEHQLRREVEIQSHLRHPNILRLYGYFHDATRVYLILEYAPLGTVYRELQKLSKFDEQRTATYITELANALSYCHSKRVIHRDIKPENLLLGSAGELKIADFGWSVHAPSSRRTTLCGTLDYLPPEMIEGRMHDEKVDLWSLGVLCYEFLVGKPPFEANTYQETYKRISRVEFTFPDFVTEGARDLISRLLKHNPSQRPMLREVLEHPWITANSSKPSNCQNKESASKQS
# [12] = target: 5-hydroxytryptamine receptor 2B (Homo sapiens) (UniProt P41595); conditions: Compound concentration 10.0 uM
# [13] = system: Phosphatidylinositol 4,5-bisphosphate 3-kinase catalytic subunit alpha isoform (Homo sapiens), P42336 [Q546K]; conditions: Compound concentration 1000.0 nM
# [14] = target: Serine/threonine-protein kinase 33 (Homo sapiens) (UniProt Q9BYT3); conditions: Compound concentration 1000.0 nM
# Chain of Serine/threonine-protein kinase 33 (Homo sapiens) (Q9BYT3 whole entry, looked up): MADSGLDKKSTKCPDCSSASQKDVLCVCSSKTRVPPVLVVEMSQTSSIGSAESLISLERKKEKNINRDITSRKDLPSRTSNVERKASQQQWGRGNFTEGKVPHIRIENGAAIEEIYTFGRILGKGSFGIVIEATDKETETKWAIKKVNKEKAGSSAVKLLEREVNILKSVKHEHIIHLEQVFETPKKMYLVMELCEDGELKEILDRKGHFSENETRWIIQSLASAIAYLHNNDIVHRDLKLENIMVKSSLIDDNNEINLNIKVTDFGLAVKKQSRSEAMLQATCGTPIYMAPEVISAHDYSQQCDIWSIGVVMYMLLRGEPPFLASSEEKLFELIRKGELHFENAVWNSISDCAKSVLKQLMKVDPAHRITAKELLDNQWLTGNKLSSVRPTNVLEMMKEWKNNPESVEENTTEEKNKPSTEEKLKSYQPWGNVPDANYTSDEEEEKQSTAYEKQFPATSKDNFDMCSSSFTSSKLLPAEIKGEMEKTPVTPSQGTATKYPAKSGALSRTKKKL
# [15] = target: Mitogen-activated protein kinase 12 (Homo sapiens) (UniProt P53778); conditions: Compound concentration 1000.0 nM
# Chain of Mitogen-activated protein kinase 12 (Homo sapiens) (P53778 whole entry): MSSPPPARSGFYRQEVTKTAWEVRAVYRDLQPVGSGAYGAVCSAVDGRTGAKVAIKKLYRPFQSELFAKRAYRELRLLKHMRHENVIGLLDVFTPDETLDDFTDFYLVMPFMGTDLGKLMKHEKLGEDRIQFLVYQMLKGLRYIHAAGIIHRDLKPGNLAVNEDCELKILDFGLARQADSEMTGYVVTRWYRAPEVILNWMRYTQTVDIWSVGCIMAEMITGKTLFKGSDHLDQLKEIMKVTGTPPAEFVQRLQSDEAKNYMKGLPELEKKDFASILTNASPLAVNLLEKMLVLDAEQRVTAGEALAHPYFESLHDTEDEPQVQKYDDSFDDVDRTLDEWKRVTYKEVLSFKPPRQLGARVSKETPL
# [16] = target: Serine/threonine-protein kinase Nek6 (Homo sapiens) (UniProt Q9HC98); conditions: Compound concentration 1000.0 nM
# [17] = target: Sigma non-opioid intracellular receptor 1 (Homo sapiens, UniProt Q99720); assay: GPCRScan assay: inhibition of Sigma 1; set-up: radioligand conc. used [nm] 4.0 – 5.0, parental cells HEKT
# Chain of Sigma non-opioid intracellular receptor 1 (Q99720 whole entry): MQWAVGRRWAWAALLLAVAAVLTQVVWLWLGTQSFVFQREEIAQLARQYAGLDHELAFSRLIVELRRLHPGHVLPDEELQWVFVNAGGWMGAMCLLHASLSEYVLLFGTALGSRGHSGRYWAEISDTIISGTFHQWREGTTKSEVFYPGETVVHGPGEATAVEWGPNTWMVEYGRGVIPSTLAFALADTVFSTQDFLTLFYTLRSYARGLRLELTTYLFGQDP
# [18] = target: Serine/threonine-protein kinase SIK2 (Homo sapiens) (UniProt Q9H0K1); conditions: Compound concentration 1000.0 nM
# Chain of Serine/threonine-protein kinase SIK2 (Homo sapiens) (Q9H0K1 whole entry, looked up): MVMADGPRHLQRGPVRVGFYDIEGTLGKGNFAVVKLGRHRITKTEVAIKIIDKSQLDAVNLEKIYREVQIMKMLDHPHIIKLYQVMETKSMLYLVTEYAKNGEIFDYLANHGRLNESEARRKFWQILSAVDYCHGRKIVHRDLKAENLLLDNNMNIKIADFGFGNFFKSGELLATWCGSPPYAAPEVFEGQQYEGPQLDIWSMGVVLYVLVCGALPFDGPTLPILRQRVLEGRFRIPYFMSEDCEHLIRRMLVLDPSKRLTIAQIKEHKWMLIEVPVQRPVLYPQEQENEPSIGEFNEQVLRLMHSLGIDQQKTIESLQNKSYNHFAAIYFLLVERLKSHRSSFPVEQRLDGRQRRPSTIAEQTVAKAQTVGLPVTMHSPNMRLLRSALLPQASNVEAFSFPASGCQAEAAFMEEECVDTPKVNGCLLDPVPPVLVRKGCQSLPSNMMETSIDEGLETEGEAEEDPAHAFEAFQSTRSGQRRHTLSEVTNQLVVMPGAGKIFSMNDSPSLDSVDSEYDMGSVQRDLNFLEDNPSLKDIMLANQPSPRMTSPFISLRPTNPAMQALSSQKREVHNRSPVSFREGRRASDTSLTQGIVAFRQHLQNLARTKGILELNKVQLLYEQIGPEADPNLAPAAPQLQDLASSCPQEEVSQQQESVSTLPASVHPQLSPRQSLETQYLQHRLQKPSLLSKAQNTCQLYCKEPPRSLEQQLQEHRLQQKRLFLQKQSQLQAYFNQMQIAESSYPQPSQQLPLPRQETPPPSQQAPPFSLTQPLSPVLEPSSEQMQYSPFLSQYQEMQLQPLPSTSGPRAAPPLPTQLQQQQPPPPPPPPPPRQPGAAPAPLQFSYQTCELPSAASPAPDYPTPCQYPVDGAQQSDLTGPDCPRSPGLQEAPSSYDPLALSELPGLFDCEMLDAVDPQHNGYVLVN
# [19] = system: Epidermal growth factor receptor (Homo sapiens), P00533 [L861Q]; conditions: Compound concentration 1000.0 nM
# [20] = target: Cyclin-dependent kinase 18 (Homo sapiens) (UniProt Q07002); conditions: Compound concentration 1000.0 nM
# [21] = target: Dual specificity tyrosine-phosphorylation-regulated kinase 2 (Homo sapiens) (UniProt Q92630); conditions: Compound concentration 1000.0 nM
# [22] = target: Phosphatidylinositol 3-kinase catalytic subunit type 3 (Homo sapiens) (UniProt Q8NEB9); conditions: Compound concentration 1000.0 nM
# [23] = target: 5'-AMP-activated protein kinase catalytic subunit alpha-2 (Homo sapiens) (UniProt P54646); conditions: Compound concentration 1000.0 nM
# [24] = target: Inhibitor of nuclear factor kappa-B kinase subunit beta (Homo sapiens) (UniProt O14920); conditions: Compound concentration 1000.0 nM
# [25] = target: Leukocyte tyrosine kinase receptor (Homo sapiens) (UniProt P29376); conditions: Compound concentration 1000.0 nM
# [26] = target: Ribosomal protein S6 kinase alpha-4 (Homo sapiens) (UniProt O75676); conditions: Compound concentration 1000.0 nM
# [27] = target: Serine/threonine-protein kinase TAO2 (Homo sapiens) (UniProt Q9UL54); conditions: Compound concentration 1000.0 nM
# Chain of Serine/threonine-protein kinase TAO2 (Homo sapiens) (Q9UL54 whole entry): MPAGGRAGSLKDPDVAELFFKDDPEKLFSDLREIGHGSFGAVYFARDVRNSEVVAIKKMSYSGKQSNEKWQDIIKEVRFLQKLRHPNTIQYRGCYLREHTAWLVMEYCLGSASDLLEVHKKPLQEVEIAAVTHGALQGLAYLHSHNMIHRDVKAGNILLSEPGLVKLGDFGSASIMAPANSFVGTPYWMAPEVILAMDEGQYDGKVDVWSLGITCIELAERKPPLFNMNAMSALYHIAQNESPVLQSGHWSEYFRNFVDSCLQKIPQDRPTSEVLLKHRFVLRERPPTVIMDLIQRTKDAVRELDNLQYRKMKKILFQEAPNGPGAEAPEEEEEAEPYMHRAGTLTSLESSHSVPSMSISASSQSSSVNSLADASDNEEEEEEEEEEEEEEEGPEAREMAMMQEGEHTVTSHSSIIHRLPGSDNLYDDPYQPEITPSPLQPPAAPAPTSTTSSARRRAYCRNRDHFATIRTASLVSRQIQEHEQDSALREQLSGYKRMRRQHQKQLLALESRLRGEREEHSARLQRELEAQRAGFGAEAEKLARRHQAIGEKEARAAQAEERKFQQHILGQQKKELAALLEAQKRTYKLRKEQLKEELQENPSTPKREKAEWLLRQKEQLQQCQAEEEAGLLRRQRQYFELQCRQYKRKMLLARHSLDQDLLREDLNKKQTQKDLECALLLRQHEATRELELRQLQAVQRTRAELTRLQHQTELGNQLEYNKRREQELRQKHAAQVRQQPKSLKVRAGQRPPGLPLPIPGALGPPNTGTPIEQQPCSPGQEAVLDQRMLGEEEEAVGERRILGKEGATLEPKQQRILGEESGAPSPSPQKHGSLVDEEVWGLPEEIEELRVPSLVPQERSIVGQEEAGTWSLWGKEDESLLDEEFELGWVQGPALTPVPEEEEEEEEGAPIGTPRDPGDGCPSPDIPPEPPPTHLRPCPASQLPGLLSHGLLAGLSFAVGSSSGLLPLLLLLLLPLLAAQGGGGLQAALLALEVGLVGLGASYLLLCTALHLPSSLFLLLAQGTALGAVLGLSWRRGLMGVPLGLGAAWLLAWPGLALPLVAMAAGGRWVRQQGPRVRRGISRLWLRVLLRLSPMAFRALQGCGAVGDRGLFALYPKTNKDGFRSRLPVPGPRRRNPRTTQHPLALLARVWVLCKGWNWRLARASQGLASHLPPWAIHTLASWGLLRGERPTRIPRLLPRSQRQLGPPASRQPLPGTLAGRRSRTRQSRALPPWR
# [28] = target: Serine/threonine-protein kinase MAK (Homo sapiens) (UniProt P20794); conditions: Compound concentration 1000.0 nM
# [29] = target: Serine/threonine-protein kinase D2 (Homo sapiens) (UniProt Q9BZL6); conditions: Compound concentration 1000.0 nM
# [30] = system: Epidermal growth factor receptor (Homo sapiens), P00533 [L858R]; conditions: Compound concentration 1000.0 nM
# [31] = target: MAP/microtubule affinity-regulating kinase 3 (Homo sapiens) (UniProt P27448); conditions: Compound concentration 1000.0 nM
# [32] = target: Alpha-2C adrenergic receptor (Homo sapiens) (UniProt P18825); conditions: Compound concentration 10.0 uM
# Chain of Alpha-2C adrenergic receptor (Homo sapiens) (P18825 whole entry): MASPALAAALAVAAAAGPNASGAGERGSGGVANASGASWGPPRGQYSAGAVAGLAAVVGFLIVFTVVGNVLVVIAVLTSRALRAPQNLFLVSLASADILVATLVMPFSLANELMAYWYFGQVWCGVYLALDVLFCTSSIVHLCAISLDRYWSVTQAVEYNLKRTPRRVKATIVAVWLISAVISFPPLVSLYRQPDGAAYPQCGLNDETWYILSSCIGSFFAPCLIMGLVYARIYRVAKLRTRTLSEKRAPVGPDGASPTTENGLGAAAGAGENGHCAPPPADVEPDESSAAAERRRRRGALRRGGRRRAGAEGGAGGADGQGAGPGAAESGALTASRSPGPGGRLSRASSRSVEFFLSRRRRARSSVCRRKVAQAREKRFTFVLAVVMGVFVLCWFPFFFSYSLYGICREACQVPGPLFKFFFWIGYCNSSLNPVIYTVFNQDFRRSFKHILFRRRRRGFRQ
# [33] = target: Serine/threonine-protein kinase tousled-like 2 (Homo sapiens) (UniProt Q86UE8); conditions: Compound concentration 1000.0 nM
# [34] = target: Mitogen-activated protein kinase kinase kinase kinase 2 (Homo sapiens) (UniProt Q12851); conditions: Compound concentration 1000.0 nM
# Chain of Mitogen-activated protein kinase kinase kinase kinase 2 (Homo sapiens) (Q12851 whole entry): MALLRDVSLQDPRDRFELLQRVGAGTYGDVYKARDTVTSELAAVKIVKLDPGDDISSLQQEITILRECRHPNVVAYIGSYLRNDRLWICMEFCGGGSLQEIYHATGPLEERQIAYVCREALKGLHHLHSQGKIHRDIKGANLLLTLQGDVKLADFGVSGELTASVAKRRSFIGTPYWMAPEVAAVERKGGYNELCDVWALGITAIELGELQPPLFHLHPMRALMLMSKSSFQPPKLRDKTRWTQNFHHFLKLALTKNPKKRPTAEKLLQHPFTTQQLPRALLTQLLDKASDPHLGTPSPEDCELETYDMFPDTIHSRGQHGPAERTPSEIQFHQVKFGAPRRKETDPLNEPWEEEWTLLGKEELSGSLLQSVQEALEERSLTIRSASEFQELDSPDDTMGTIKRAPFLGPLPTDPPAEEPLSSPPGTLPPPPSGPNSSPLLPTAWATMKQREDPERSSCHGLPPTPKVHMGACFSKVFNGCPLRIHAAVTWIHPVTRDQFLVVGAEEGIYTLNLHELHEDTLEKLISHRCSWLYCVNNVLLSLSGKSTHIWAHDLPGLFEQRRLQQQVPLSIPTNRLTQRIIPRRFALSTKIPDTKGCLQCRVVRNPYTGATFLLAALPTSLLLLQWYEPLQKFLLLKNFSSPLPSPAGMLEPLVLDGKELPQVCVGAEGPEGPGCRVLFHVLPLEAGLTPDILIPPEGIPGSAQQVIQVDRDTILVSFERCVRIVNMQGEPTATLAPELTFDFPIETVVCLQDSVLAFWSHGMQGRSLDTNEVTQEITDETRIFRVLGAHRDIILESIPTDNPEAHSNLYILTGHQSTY
# [35] = system: Epidermal growth factor receptor (Homo sapiens), P00533 [UNDEFINED MUTATION]; conditions: Compound concentration 1000.0 nM
# [36] = target: Activin receptor type-2A (Homo sapiens) (UniProt P27037); conditions: Compound concentration 1000.0 nM
# [37] = target: Serine/threonine-protein kinase 32A (Homo sapiens) (UniProt Q8WU08); conditions: Compound concentration 1000.0 nM
# [38] = target: Testis-specific serine/threonine-protein kinase 3 (Homo sapiens) (UniProt Q96PN8); conditions: Compound concentration 1000.0 nM
# [39] = target: T1, GABA-A receptor; anion channel (Rattus norvegicus); conditions: Compound concentration 10.0 uM; remark: listed apart in the source
# [40] = target: Alpha-1B adrenergic receptor (Homo sapiens) (UniProt P35368); conditions: Compound concentration 10.0 uM
# [41] = target: Mitogen-activated protein kinase kinase kinase 6 (Homo sapiens) (UniProt O95382); conditions: Compound concentration 1000.0 nM
# [42] = target: Serine/threonine-protein kinase SBK1 (Homo sapiens) (UniProt Q52WX2); conditions: Compound concentration 1000.0 nM
smiles,measurement,setting,value
CCC(=N\O)/C(C)=C/c1ccc(F)c(C)c1 [A-226],residual activity,[1],100%
same,residual activity,[2],100%
same,residual activity,[3],96%
same,residual activity,[4],100%
same,inhibition,[5],20.3%
same,residual activity,[6],100%
same,residual activity,[7],90%
same,residual activity,[8],91%
same,residual activity,[9],100%
same,residual activity,[10],70%
same,residual activity,[11],82%
same,inhibition,[12],43.8%
same,residual activity,[13],46%
same,residual activity,[14],96%
same,residual activity,[15],88%
same,residual activity,[16],99%
same,Ki,[17]; read-out: Ki,529 nM
same,residual activity,[18],100%
same,residual activity,[19],68%
same,residual activity,[20],87%
same,residual activity,[21],87%
same,residual activity,[22],100%
same,residual activity,[23],100%
same,residual activity,[24],100%
same,residual activity,[25],61%
same,residual activity,[26],100%
same,residual activity,[27],100%
same,residual activity,[28],100%
same,residual activity,[29],100%
same,residual activity,[30],100%
same,residual activity,[31],100%
same,inhibition,[32],15.7%
same,residual activity,[33],100%
same,residual activity,[34],100%
same,residual activity,[35],69%
same,residual activity,[36],100%
same,residual activity,[37],100%
same,residual activity,[38],100%
same,inhibition,[39],16.7%
same,inhibition,[40],0.56%
same,residual activity,[41],100%
same,residual activity,[42],100%
CCC(=N\O)/C(C)=C/c1ccc(F)cc1 [A-079],residual activity,[1],100%
same,residual activity,[2],63%
same,residual activity,[3],75%
same,residual activity,[4],75%
same,inhibition,[5],21.5%
same,residual activity,[6],80%
same,residual activity,[7],100%
same,residual activity,[8],89%
same,residual activity,[9],77%
same,residual activity,[10],85%
same,residual activity,[11],100%
same,inhibition,[12],24.7%
same,residual activity,[13],91%
same,residual activity,[14],100%
same,residual activity,[15],100%
same,residual activity,[16],87%
same,Ki,[17]; read-out: Ki,505 nM
same,Ki,[17]; read-out: pKi (converted),457 nM
same,residual activity,[18],100%
same,residual activity,[19],60%
same,residual activity,[20],89%
same,residual activity,[21],94%
same,residual activity,[22],83%
same,residual activity,[23],88%
same,residual activity,[24],83%
same,residual activity,[25],87%
same,residual activity,[26],96%
same,residual activity,[27],94%
same,residual activity,[28],100%
same,residual activity,[29],99%
same,residual activity,[30],65%
same,residual activity,[31],86%
same,inhibition,[32],8.29%
same,residual activity,[33],100%
same,residual activity,[34],97%
same,residual activity,[35],61%
same,residual activity,[36],100%
same,residual activity,[37],100%
same,residual activity,[38],99%
same,inhibition,[39],14.7%
same,inhibition,[40],3.8%
same,residual activity,[41],63%
same,residual activity,[42],100%
